Data reported in US20220119868A1, “PROFILING RNA-SMALL MOLECULE BINDING SITES WITH OLIGONUCLEOTIDES” (priority 2018, published 2022).

System: SL I site of HCV RNA in replicon cells
Experiment: Oligonucleotide profiling of target engagement in cells by RT-qPCR
Assay type: cell-based, Hepatitis C virus
Source text: Given these favorable results in vitro, the competitive cleaving approach was used to map cellular ligand binding sites. […] Previous approaches to map small molecule-RNA binding sites, such as Chemical Cross-Linking and Isolation by Pull-down (Chem-CLIP)59-61 and Small Molecule Nucleic Acid Profiling by Cleavage Applied to RNA (Ribo-SNAP)61, require the synthesis of derivatives of the lead molecules that allow them to cross-link or cleave and RNA target, respectively. […] Guan, L. and Disney, M. D. (2012). Recent advances in developing small molecules targeting RNA. ACS Chem. Biol. 7, 73-86. • 2. Thomas, J. R. and Hergenrother, P. J. (2008). Targeting RNA with small molecules. Chem. Rev. 108, 1171-1224. • 3. Blount, K. F. and Breaker, R. R. (2006). Riboswitches as antibacterial drug targets. Nat. Biotechnol. 24, 1558-1564. • 4. Tenson, T. and Mankin, A. (2006). Antibiotics and the ribosome. Mol. Microbiol. 59, 1664-1677. • 5. Schlunzen, F., Zarivach, R., Harms, J., Bashan, A., Tocilj, A., Albrecht, R., Yonath, A. and Franceschi, F. (2001). Structural basis for the interaction of antibiotics with the peptidyl transferase centre in eubacteria. Nature 413, 814-821. • 6. Hermann, T. (2016). Small molecules targeting viral rna. Wiley Interdiscip. Rev. RNA 7, 726-743. • 7. Ohgushi, M., Kuroki, S., Fukamachi, H., O'Reilly, L. A., Kuida, K., Strasser, A. and Yonehara, S. (2005). […]

O=C(Nc1ccc(C2=NCCN2)cc1)c1cc(C(=O)Nc2ccc(C3=NCCN3)cc2)cc(C(=O)Nc2ccc(C3=NCCN3)cc2)c1 [Compound 8]
rescue of ASO-induced cleavage in cells (Control ASO complementary to a downstream site): does not rescue cleavage
inhibition of ASO-induced cleavage in cells (antisense oligonucleotide overlapping the 8-binding site (SL I ASO)): inhibited cleavage
